Several values for one entry are separate records, joined by “and”; a condition that tells them apart may be missing. Equal entries are not always repeated.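 Cultured in 96-well plates, cells were exposed to test compound for 48 hours across five concentrations. GI50 marks 50% less growth. TGI: total growth inhibition.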
Tests used:
Assay in all cases: NCI tumour cell line growth inhibition, 48 h
[1] = test system: RXF 393 renal
[2] = test system: CCRF-CEM leukemia
[3] = test system: OVCAR-4 ovarian
[4] = test system: PC-3 prostate
[5] = test system: SNB-19 CNS
[6] = test system: BT-549 breast
[7] = test system: SN12C renal
[8] = test system: OVCAR-3 ovarian
[9] = test system: T-47D breast
[10] = test system: SF-268 CNS

SMILES	GI50 [1]	TGI [1]	GI50 [2]	TGI [2]	GI50 [3]	TGI [3]	GI50 [4]	TGI [4]	GI50 [5]	TGI [5]	GI50 [6] [µM]	TGI [6] [µM]	GI50 [7]	TGI [7]	GI50 [8]	TGI [8]	GI50 [9] [µM]	TGI [9]	GI50 [10]	TGI [10]
COc1ccc(CCNc2nc3ccccc3c3[nH]c4ccccc4c23)cc1OC	1.47 µM	3.15 µM	1.87 µM	13.8 µM	3.15 µM	12.8 µM	3.66 µM	14 µM	3.84 µM	15.4 µM	12.1	26.3	3.58 µM	16.5 µM	1.98 µM	4.24 µM	15.3	34.2 µM	4.77 µM	20.6 µM
Cc1cc(O)c2c(c1)C[C@@H](O)C1=C2C(=O)c2c(O)ccc(OC3CC(O)C(OC4CC(OC5CCC(OC6CC(O)C(OC7CC(OC8CCC(O)C(C)O8)C(O)C(C)O7)C(C)O6)C(C)O5)C(O)C(C)O4)C(C)O3)c2C1=O (stereo not given in full)	0.302 µM and 0.29 µM	0.108 µM and 0.535 µM and 0.751 µM	0.0386 µM	0.255 µM and 0.266 µM	0.326 µM	–	0.4 µM and 0.849 µM	0.56 µM and 1.49 µM and 3.5 µM	1.41 µM and 1.24 µM	0.335 µM and 2.88 µM and 2.67 µM	–	0.49	0.307 µM and 1.94 µM	–	0.223 µM	0.138 µM and 0.765 µM	0.626	0.352 µM and 2.54 µM	0.295 µM and 0.467 µM	–
O=C(Cn1ccnc1[N+](=O)[O-])NCCO	–	> 100 µM	–	> 100 µM	–	> 100 µM	–	> 100 µM	–	> 100 µM	–	> 100	–	> 100 µM	–	> 100 µM	–	> 100 µM	–	> 100 µM
COc1c(O)c2ccccc2c2cc(O)ccc12	–	22.9 µM	–	73.8 µM	–	22.8 µM	–	60.1 µM	–	28.2 µM	–	7.04	–	14.1 µM	–	19.2 µM	–	38.4 µM	–	28.8 µM
Cc1cc(Cl)n2c(nc3ccccc32)c1C#N	0.854 µM	2.66 µM	0.0485 µM	–	0.971 µM	3.43 µM	0.383 µM	1.6 µM	2.44 µM	15.6 µM	0.473	2.28	0.499 µM	8.33 µM	0.583 µM	1.86 µM	0.718	2.3 µM	0.46 µM	11.4 µM
CCCCc1ccc2nc(NC(=O)OC)[nH]c2c1	0.0929 µM	20.1 µM	0.0342 µM	–	1.7 µM	> 69.2 µM	0.0413 µM	> 82.7 µM	0.0487 µM	> 100 µM	0.0707	12.4	0.0832 µM	> 60.4 µM	0.0228 µM	0.0502 µM	0.0392	> 100 µM	0.0616 µM	16.9 µM
CC(=O)OCC1OC(n2cc(F)c(=O)[nH]c2=O)C(OC(C)=O)C1OC(C)=O (stereo not given)	–	99.2 µM	–	> 100 µM	–	> 90.3 µM	–	> 100 µM	–	> 100 µM	–	> 100	–	> 100 µM	–	91.8 µM	–	> 100 µM	–	> 100 µM
Cc1ncc(C(=O)Nc2ccc(CN3CCN(C)CC3)c(C(F)(F)F)c2)cc1C#Cc1c(N)ncc2ccc(C#N)cc12	0.327 µM	1.29 µM	1.41 µM	16.5 µM	0.975 µM	11 µM	4.49 µM	19.3 µM	6.71 µM	15.6 µM	2.71	11.2	1.16 µM	17.9 µM	1.57 µM	8.54 µM	> 14.5	> 50 µM	1.4 µM	9.7 µM
CCc1cc(C(N)=O)ccc1-n1nc(C(C)C)c2c(-n3cnc(-c4cnn(C)c4)c3)ccnc21	3.09 µM	> 100 µM	0.752 µM	> 100 µM	6.24 µM	> 100 µM	3.61 µM	> 100 µM	3.3 µM	> 100 µM	6.81	> 100	0.761 µM	> 100 µM	2.37 µM	> 100 µM	1.83	> 100 µM	8.76 µM	> 100 µM
COc1ccc(C(=O)/C=C/c2ccc(Cl)cc2)cc1S(N)(=O)=O	1.98 µM	3.97 µM	3.35 µM	9.35 µM	3.46 µM	12.6 µM	2.24 µM	5.24 µM	3.1 µM	10.3 µM	2.29	7.33	2.72 µM	8.4 µM	2.04 µM	4.45 µM	3.2	14.4 µM	3.13 µM	11.9 µM
CC[C@]1(O)C[C@@H]2CN(Cc3c([nH]c4ccccc34)[C@@](C(=O)OC)(c3cc4c(cc3OC)N(C)[C@H]3[C@@](O)(C(=O)OC)[C@H](OC(C)=O)[C@]5(CC)[C@@H]6C[C@@H]6CN6CC[C@]43[C@@H]65)C2)C1	0.111 µM	> 4.38 µM	0.0369 µM	> 4.38 µM	0.666 µM	> 4.38 µM	0.0829 µM	> 4.38 µM	0.106 µM	> 4.38 µM	0.365	> 4.38	0.232 µM	> 4.38 µM	0.0162 µM	–	0.0562	> 4.38 µM	0.148 µM	> 4.38 µM
Cc1ccc(CCC(=O)Nc2ncc(Cc3cc(Cl)ccc3Cl)s2)o1	0.256 µM	1.75 µM	0.197 µM	> 100 µM	0.767 µM	> 20.4 µM	0.244 µM	> 42.8 µM	0.33 µM	5.45 µM	0.29	2.72	0.489 µM	11.1 µM	0.172 µM	1.36 µM	1.22	> 100 µM	1.59 µM	> 54.6 µM
Cc1nc2c(cnn2-c2ccnc3c(C(F)(F)F)cccc23)c(=O)o1	> 100 µM	> 100 µM	> 100 µM	> 100 µM	> 100 µM	> 100 µM	> 100 µM	> 100 µM	> 100 µM	> 100 µM	> 100	> 100	> 100 µM	> 100 µM	> 100 µM	> 100 µM	> 100	> 100 µM	> 100 µM	> 100 µM
O=P(O)(O)OC1C(OP(=O)(O)O)C(OP(=O)(O)O)C(OP(=O)(O)O)C(OP(=O)(O)O)C1OP(=O)(O)O (stereo not given)	> 500 µM and 1720 µM	> 2000 µM	> 100 µM	> 2000 µM	> 100 µM	> 2000 µM	> 2000 µM	> 2000 µM	> 2000 µM	> 2000 µM	> 1690	> 2000	> 2000 µM	> 2000 µM	> 2000 µM	> 2000 µM	> 2000	> 2000 µM	> 2000 µM	> 2000 µM
C=C1C(=O)OC(CCCCCCCC)C1C(=O)O (stereo not given)	10.7 µM	23.2 µM	5.49 µM	38.7 µM	15.3 µM	31.8 µM	20.2 µM	40 µM	17 µM	32.1 µM	12.6	26.6	14.3 µM	28.5 µM	7.66 µM	19.5 µM	12.3	30.6 µM	19.5 µM	39.6 µM
O=C(Nc1ccc(Cl)cc1)NS(=O)(=O)c1ccc2c(c1)CCC2	2.52 µg/mL	79.3 µM and 22.8 µg/mL	10.5 µg/mL	> 100 µM and 57.4 µg/mL	37.9 µg/mL	> 100 µM and 88.1 µg/mL	–	47.3 µM	18.6 µg/mL	> 100 µM and 53.5 µg/mL	–	> 100	20.3 µg/mL	> 100 µM and 43.1 µg/mL	5.61 µg/mL	73.8 µM and 21.4 µg/mL	–	74.6 µM	15.7 µg/mL	> 100 µM and 35.7 µg/mL
COc1ccccc1/C=C1\COc2ccc(O)c(O)c2C1=O	1.51 µM	2.97 µM	0.286 µM	2.11 µM	1.86 µM	9.55 µM	1.43 µM	11.3 µM	2.61 µM	26.2 µM	2.48	7.53	1.48 µM	5.31 µM	0.834 µM	6.68 µM	2.47	> 100 µM	2.22 µM	8.42 µM
N#Cc1c(N)nn(C(=O)c2ccc(NC(=O)c3ccccn3)cc2)c1-c1ccc(Cl)cc1	3.11 µM	24.5 µM	8.86 µM	> 100 µM	2.33 µM	6.02 µM	3.58 µM	> 100 µM	4.15 µM	33.3 µM	4.86	> 100	6.42 µM	> 100 µM	3.9 µM	24.3 µM	2.79	9.15 µM	3.55 µM	24.1 µM
CC1CN(CCO)CC(C)O1 (stereo not given)	–	> 100 µM	–	> 100 µM	–	> 100 µM	–	> 100 µM	–	> 100 µM	–	> 100	–	> 100 µM	–	> 100 µM	–	> 100 µM	–	> 100 µM
COc1ccc(/C=C2/SC(=Nc3c(C)nn(-c4ccccc4)c3N)NC2=O)cc1	14.5 µM	47.8 µM	2.14 µM	20.8 µM	8.21 µM	> 100 µM	4.35 µM	77.7 µM	7.68 µM	> 100 µM	4.94	22.4	8.39 µM	55.2 µM	2.6 µM	5.9 µM	3.96	45.3 µM	4.84 µM	35.7 µM
COC1CC(OC2OC(CO)C(O)C(O)C2O)/C(=C\C#N)C(O)C1OC (stereo not given)	–	> 100 µM	–	> 100 µM	–	> 100 µM	–	> 100 µM	–	> 100 µM	–	> 100	–	> 100 µM	–	> 100 µM	–	> 100 µM	–	> 100 µM
O=C(CCCCCCc1nc2ccc(Br)cc2[nH]1)NO	0.24 µM	0.813 µM	0.405 µM	> 100 µM	2.43 µM	> 100 µM	0.796 µM	> 100 µM	0.689 µM	> 30 µM	1.69	32.3	1.3 µM	> 35.5 µM	0.313 µM	1.61 µM	0.23	> 100 µM	0.67 µM	3.3 µM
CC(C)Oc1cc(OCC(=O)O)cc(C(=O)N(CCC(N)=O)C(=O)Nc2ccc(C(=O)O)cc2OC(C)C)c1	> 100 µM	> 100 µM	> 100 µM	> 100 µM	> 100 µM	> 100 µM	> 100 µM	> 100 µM	> 100 µM	> 100 µM	> 100	> 100	> 100 µM	> 100 µM	> 100 µM	> 100 µM	> 100	> 100 µM	> 100 µM	> 100 µM
Cc1cc2c(-c3nc4ccccc4[nH]3)c(O)c(O)cc2c(O)c1-c1c(C)cc2c(-c3nc4ccccc4[nH]3)c(O)c(O)cc2c1O	0.0434 µM	3.56 µM	0.0113 µM	> 50 µM	0.0384 µM	16.8 µM	0.0187 µM	> 34.4 µM	0.0202 µM	9.62 µM	0.0235	1.13	0.0272 µM	8.08 µM	0.0411 µM	15.1 µM	0.0168	0.741 µM	0.0312 µM	3.72 µM
C=C1C(=O)O[C@@H]2[C@@H]3O[C@@](C)(CC/C=C(\C)CCC[C@@H]2C)[C@H](O)C[C@@H]13	1.79 µM	3.58 µM	3.01 µM	21.3 µM	2.63 µM	11.7 µM	4.31 µM	18.3 µM	14.6 µM	28.6 µM	1.84	4.46	2.61 µM	10.1 µM	1.7 µM	3.34 µM	2.02	4.7 µM	3.04 µM	10 µM

From PubChem BioAssay (NCI)
